Test results reported in ChEMBL document CHEMBL3507680, “University of Dundee, Gates Library screen for HepG2 cell viability”.

Experiment: Human HepG2 cell viability assay in 384 well format
Assay type: toxicity, cell-based
Set-up: dose 125 nL, time 70.5 hour; cytotoxicity at 70.5 h: concentration not given beside the values
Conditions: HepG2 cells, read-out: Inhibition

Structure (SMILES) | cytotoxicity at 70.5 h
CC(NC(=O)Nc1ccc(N2CCCC2)nc1)c1nncn1C (configuration not stated) | 5.27%
COc1ccccc1OCCN1CCCCC1Cn1cncn1 (configuration not stated) | 23.7%
Cc1nn(C)c(C)c1C1CCCN1CC(=O)Nc1nccs1 (configuration not stated) | -0.764%
Cc1nn(C)c(C)c1C1CCCN1CC(=O)Nc1cccnc1 (configuration not stated) | 23.1%
Cc1nnc(NC(=O)CN2CCCC2c2c(C)nn(C)c2C)s1 (configuration not stated) | 7.87%
Cc1n[nH]c(C)c1NC(=O)CN1CCCC1c1c(C)nn(C)c1C (configuration not stated) | 1.54%
COc1ccccc1CC(=O)N1CCCC(c2cc(C)[nH]n2)C1 (configuration not stated) | 3.02%
COc1cc(Cl)ccc1C(=O)N1CCCC(c2cc(C)[nH]n2)C1 (configuration not stated) | 36.1%
CC(NC(=O)CCOc1ccc(F)cc1)c1nnc2n1CCCCC2 (configuration not stated) | 5.98%
CC(C)c1nc2n(n1)CC(NCc1nc(C3CC3)no1)CC2 (configuration not stated) | -1.86%
c1cnnc(N2CCCC(NCc3cccc4c3OCCCO4)C2)c1 (configuration not stated) | 0.746%
Cn1cnnc1C1CCCN(C(=O)COCc2ccccc2)C1 (configuration not stated) | -2.8%
COCc1nc(C(=O)N2CCCC(n3nc(C)nc3C)C2)cs1 (configuration not stated) | 28.1%
Cc1nc(C)n(C2CCCN(C(=O)c3ccn(C(C)C)n3)C2)n1 (configuration not stated) | -6.2%
Cc1nc(C)n(C2CCCN(C(=O)c3cscn3)C2)n1 (configuration not stated) | -2.85%
Cc1cnc(C(=O)N2CCCC(n3nc(C)nc3C)C2)cn1 (configuration not stated) | -11.1%
COc1ncccc1CNC(=O)c1cc(C)on1 | -8.23%
CC(C)Oc1ncccc1CNC(=O)c1ccc(=O)[nH]n1 | -3.21%
COc1cccc(C(=O)N2CCCC(CNS(C)(=O)=O)C2)c1 (configuration not stated) | -8.76%
Cc1cnc(C(=O)NCc2cccnc2OC(C)C)cn1 | 21%
Cc1ncsc1C(=O)NCCNc1ncccc1C#N | -8.88%
CCc1nc(C)c(C(=O)NCCNc2ncccc2C#N)s1 | 19.3%
Cn1ncc2c1CCCC2NCc1cccc(OC2CCCC2)c1 (configuration not stated) | -5.51%
CC(C)Oc1ncccc1CNC(=O)c1cc(C2CC2)on1 | 16%
COc1ccnc(N2CCN(C(=O)c3ccc(Cl)o3)CC2)n1 | -4.43%
COc1cc(C)nc(N2CCN(C(=O)c3ccoc3C)CC2)n1 | -6.48%

Structure (SMILES) | cytotoxicity at 70.5 h
Cc1ccc2cc(C(=O)N3CCC(Nc4cccnn4)CC3)[nH]c2c1 | 21.4%
Cc1cccc2[nH]cc(CC(=O)N3CCC(Nc4cccnn4)CC3)c12 | 0.978%
O=C(Cc1noc2ccccc12)N1CCC(Nc2cccnn2)CC1 | -5.81%
O=C(Cc1cccc2ccccc12)N1CCC(Nc2cccnn2)CC1 | -7.06%
CC(=O)Nc1nc(CN(C)C2CCCN(c3cccnn3)C2)cs1 (configuration not stated) | -13.5%
CN(Cc1cnn(-c2ccccc2)n1)C1CCCN(c2cccnn2)C1 (configuration not stated) | -12.2%
Cc1nc(C)n(C2CCCN(C(=O)c3c[nH]c(C(C)C)n3)C2)n1 (configuration not stated) | -11.1%
Cc1nccn1C1CCCN(C(=O)c2cccc(S(C)(=O)=O)c2)C1 (configuration not stated) | -11.1%
O=C(CCCn1cncn1)N1CCCC1c1noc(C2CC2)n1 (configuration not stated) | -3.05%
COCCCNC(=O)c1c(C)noc1C(C)C | -11.8%
CC(O)(CN1CCN(CCO)CC1)c1cccc(C(F)(F)F)c1 (configuration not stated) | 14.6%
CCc1nccn1C1CCCN(C(=O)c2csc(C3CC3)n2)C1 (configuration not stated) | -22%
CCN1CCOC(CNCc2csc(C)n2)C1 (configuration not stated) | -14.2%
Cc1nccn1C1CCCN(C(=O)c2cccc(-n3cccc3)c2)C1 (configuration not stated) | 11.6%
Cc1cc(C)n(CC2CCCN2C(=O)c2cc[nH]n2)n1 (configuration not stated) | -1.3%
Cc1cc(C)n(C2CN(CC(=O)N3CCOCC3)C2)n1 | 4.72%
Cc1cc(C)n(C2CN(CC(=O)NCC(C)(C)N3CCOCC3)C2)n1 | 0.262%
Cc1ccoc1C(=O)NC1CCN(Cc2csc3c(F)cccc23)CC1 | 18.8%
CC(C)C(=O)NC1CCN(Cc2cccc3c2OCCO3)CC1 | -1.98%
c1ccc(OCCCNCCn2cccn2)cc1 | -0.836%
CCc1nc(CN(Cc2cccs2)CC2CCCO2)no1 (configuration not stated) | 1.39%
Cc1cnn(C2CCCN(C(=O)c3ccnc(N(C)C)c3)C2)c1 (configuration not stated) | 28.8%
Cc1cnn(C2CCCN(C(=O)c3cccc(Cn4ccnc4)c3)C2)c1 (configuration not stated) | 20.1%
CSc1ncccc1C(=O)NCc1ccc(CS(=O)(=O)NC(C)C)cc1 | 2.32%
COc1ccc(OC)c(NC(=O)NCC(O)c2ccc(F)c(F)c2)c1 (configuration not stated) | 9.62%
O=C(NCCNc1cnccn1)C1CCN(C(=O)N2CCCC2)CC1 | 2.17%

Structure (SMILES) | cytotoxicity at 70.5 h
COc1ncccc1NC(=O)NCC(O)c1ccc(F)cc1F (configuration not stated) | -1.05%
CS(=O)(=O)Cc1ccc(CNC(=O)c2cccnc2O)cc1 | 9.83%
Cc1cc(C)c(CNC(=O)N2CCCC2C(N)=O)c(=O)[nH]1 (configuration not stated) | -4.33%
CC(C)NC(=O)Cn1cc(-c2ccccc2)cn1 | 1.95%
O=C(NCCNc1cnccn1)N1CCCC1 | 5.69%
CC(C(=O)N1CCN(c2cnccn2)CC1)n1cncn1 (configuration not stated) | -4.32%
CC(=O)NC(C)(C)C(=O)Nc1ncc(Cc2ccc(C)c(F)c2)s1 | -0.712%
Cc1cc(C)n(C2CCCN(C(=O)CCCNc3ncccn3)C2)n1 (configuration not stated) | 27.5%
Cc1cnn(CC2CCCCN2CCC(=O)Nc2cc(C)on2)c1 (configuration not stated) | 4.06%
CC(C)c1n[nH]c(C2CN(C(=O)CCn3ccccc3=O)CCO2)n1 (configuration not stated) | -2.51%
Cc1ccc(N2CCCC(NCC(=O)NC3CCOCC3)C2)nn1 (configuration not stated) | -3.6%
CCNC(c1ccc(OC)cc1)c1cccnc1 (configuration not stated) | -8.14%
Cc1nn(C)c(Cl)c1C1CCCN1CC(=O)NCc1ccccn1 (configuration not stated) | -7.66%
c1ccc2cc(OCCN3CCOC(Cn4cncn4)C3)ccc2c1 (configuration not stated) | 27.8%
Cc1nc(C(=O)N2CCCC(n3cncn3)C2)cs1 (configuration not stated) | -3.83%
CC(C)N1CCC(CNCc2c[nH]nc2C(C)(C)C)C1 (configuration not stated) | -0.871%
Cc1ccc(N2CCCC(NCc3ccsc3)C2)nn1 (configuration not stated) | -4.89%
O=C(CCOCc1ccccc1)N1CCCC1c1noc(C2CC2)n1 (configuration not stated) | -2.09%
Cc1ccc(NC2CCN(C(=O)Cc3cccc(F)c3)CC2)nn1 | -4.83%
Cc1nc(C)n(CC2CCCN(Cc3nc(C4CC4)no3)C2)n1 (configuration not stated) | -1.73%
Cc1nc(C)n(CC2CCCN(c3ncnc4sccc34)C2)n1 (configuration not stated) | 29.9%
COCCc1noc(CN2CCCC(Cn3nc(C)nc3C)C2)n1 (configuration not stated) | 2.6%
O=C(CCc1cscn1)N1CCCC1c1noc(C2CC2)n1 (configuration not stated) | -15.3%
CCn1cnnc1CNC(=O)N(C)Cc1ccc(F)c(F)c1 | -5.87%
CN(CCCc1ccccc1)Cc1nc2c(cnn2C)c(=O)[nH]1 | -5.07%
COCCN(Cc1nc2c(cnn2C)c(=O)[nH]1)Cc1ccco1 | -7.8%

Structure (SMILES) | cytotoxicity at 70.5 h
CCOc1cccc2c1OCC(C(=O)NS(=O)(=O)Cc1ccccc1)=C2 | 1.24%
COCCOc1ccccc1CNCc1c(C)nn(C)c1N(C)C | -0.188%
CCOC1CCN(C(=O)c2cnn(-c3ccccc3Cl)c2)CC1 | 2.04%
O=C(c1cnc(C2CC2)s1)N1CCCC(n2cccn2)C1 (configuration not stated) | -2.13%
c1ccc2sc(N3CCOC(Cn4cccn4)C3)nc2c1 (configuration not stated) | 3.57%
Cc1cnn(C2CCCN(C(=O)c3cn4cccnc4n3)C2)c1 (configuration not stated) | -3.94%
Cc1ccc(NC2CCN(C(=O)Cc3ccc(C#N)cc3)CC2)nn1 | -1.55%
CN(c1ccc(F)c(F)c1)S(=O)(=O)c1cc(C(=O)O)cs1 | -6.55%
CN(c1ccc(C(C)(C)C)cc1)S(=O)(=O)c1cc(C(=O)O)cs1 | -10.9%
CCN(CC)Cc1ccc(C(=O)N2CCN(CC(C)O)CC2)cc1 (configuration not stated) | -4.2%
Cc1nccn1CCCC(=O)N1CCC(Nc2cccnn2)CC1 | 5.36%
c1ccc2sc(CN3CCOC(Cn4cncn4)C3)nc2c1 (configuration not stated) | -4.62%
Cc1nccn1CC1CCCN1CCCc1nc(-c2cccs2)no1 (configuration not stated) | 9.19%
Cc1ccc(C)c(NC(=O)N(C)Cc2cnn(C)c2)c1 | -3.32%
CN(Cc1nnc2n1CCC2)C(=O)NCCc1ccc2c(c1)OCO2 | -11.6%
CN(Cc1nnc2n1CCC2)C(=O)Cc1ccc2c(c1)OCCO2 | -4.37%
O=C1OCCC1N1CCN(C(=O)Cc2c[nH]c3ccccc23)CC1 (configuration not stated) | 7.81%
CC1CCCCN1CCNC(=O)c1ccn(-c2ccc(F)cc2)n1 (configuration not stated) | 35.6%
O=C(CCC1CCCO1)NS(=O)(=O)c1ccc(Cl)cc1 (configuration not stated) | -5.11%
CCC(C)NC(=O)NCCCn1nc2ccccn2c1=O (configuration not stated) | -9.52%
O=C(NCCNc1ncccn1)c1ccc(-c2ccco2)[nH]c1=O | -2.56%
Cc1csc(N2CCN(C(=O)Cc3ccsc3)CC2)n1 | 31.2%
Cc1csc(N2CCN(C(=O)CCc3ccccn3)CC2)n1 | -2.58%
Cc1csc(N2CCN(C(=O)CCc3nccs3)CC2)n1 | -2.43%
